Measurements taken from patent US5985926A, “Method for inhibiting intracellular viral replication” (Cell Therapeutics, Inc., priority 1997, dated 1999).

How the values were obtained:
U1 cells = experiment: Cytotoxicity in U1 cells; assay type: cell-based, human
Excerpt: We studied the effect of CT-2576 on HIV expression in a chronically HIV-1 infected promonocytic U1 cell line (Folks et al., Science 238:800-802, 1987). […] TNF-α and other cytokines can induce HIV expression in U1 cells. U1 cells also express HIV constitutively when grown to a relatively high density. […] An inhibitor of viral reverse transcriptase is expected to only protect new cells from becoming infected but not to affect viral production from cells already infected with HIV. […] While TNF-α induces HIV expression through activation of NFκB, IL-6 and IL-1 also stimulates HIV expression through other pathways independent of NFκB activation in U1 cells.

293-EBNA cells [1] = test system: 293-EBNA cells
293-EBNA cells [2] = experiment: Viability of 293-EBNA cells, Alamar Blue; assay type: cell-based, human
Method: Cell viability was measured by a colorimetric assay that uses Alamar Blue dye (Alamar, Inc.) to report cell proliferation, viability and cytotoxicity. This vital dye indicates cell activity by serving as substrate for mitochrondrial dehydrogenases for the formation of soluble dyes which can be quantitated by determining the difference in absorbance between A570 and A600 using a plate reader.
Cell viability was measured by a […] assay that uses Alamar Blue dye (Alamar, Inc.) to report cell proliferation, viability and cytotoxicity. This vital dye indicates cell activity by serving as substrate for mitochrondrial dehydrogenases for the formation of soluble dyes which can be quantitated by determining the difference in absorbance between A570 and A600 using a plate reader.
This example illustrates that CT2576 suppressed both tat-dependent and TNF-α induced HIV-LTR transcription with an IC50 of approximately 10 μM. Study of the effects of CT2576 on cell toxicity was performed using the Alamar Blue™ dye (Alamar Biosciences) according to the manufacturer's instructions. CT2576 was not toxic to 293-EBNA cells at concentrations up to 35 μM. To show CT2576 can inhibit HIV expression, CT2576 was tested for the ability to block HIV p24 antigen expression in chronically or acutely infected cells. Specifically, CT2576 inhibited the TNF-α and IL-6 induced and the constitutive expression of HIV in the chronically infected U1 cells and in peripheral blood lymphocytes (PBL) freshly infected with a HIV strain from a clinical isolate with an IC50 of approximately 1 μM. Pharmacological inhibition of synthesis of selected PL may therefore be a novel therapeutic approach to suppression of HIV replication.

[3] = test system: HIV-LTR promoter (tat transactivation) in 293-EBNA cells; experiment: AP reporter gene expression from HIV-LTR promoter with tat expression vector, 293-EBNA cells; assay type: cell-based, HIV; human cells; details: 293-EBNA cells, HIV promoter, in words
Excerpt: The plasmid construct, pHIV.AP, using the human immunodeficiency virus (HIV) long terminal repeat (LTR) promoter (derived from pU3R-III CAT, Sodroski et al., Science 227:171, 1985) to direct the expression of the sPAP reporter gene, was made by replacing the CMV promoter region from pCMV.AP with the HIV-LTR promoter. PHIV.AP was co-transfected with pSV2tat72, an expression vector for the 72 amino acids tat protein from HIV (Frankel and Pabo, Cell 55:1189-1193, 1988), into 293-EBNA cells (Invitrogen). The cultured cells were treated with various concentrations of the compounds. The expression of the alkaline phosphatase (AP) reporter gene in the individual cultures was measured by following change in absorbance at 405 nm of the cell conditioned media in the presence of a suitable substrate (e.g., ortho-nitrophenol phosphate) (Berger et al., Gene 66:1-10, 1988).
We set up a cell-based system with a cell line cotransfected with an expression plasmid using HIV-1-LTR promoter to direct synthesis of AP reporter gene and an expression plasmid to direct synthesis of the first 72 amino acids of tat protein. Plasmid pREP7 (Invitrogen) was converted to pREP7b by deleting 2,040 bp EBNA-1 coding region and by replacing the pBR322 origin of replication (ori) with the pBluescript KS (Stratagene) ori region. The cDNA for secreted placental alkaline phosphatase (AP) was generated by PCR with the primers (5'-[…]-3')(SEQ ID NO. 3) and (5'-[…]-3') (SEQ ID NO. 4)using the plasmid pGEM-4Z/PLAP489 (American Type Culture Collection) as the template. The 2,000 bp Xba I-Sal I fragment obtained was ligated into a Nhe I/Xho I vector derived from pREP7b to generate the plasmid pREP7b.AP. The 44 bp Xba I-Bgl II fragment from plasmid pMEP4 (Invitrogen)and the 36 bp BamH I-Kpn I fragment from pREP7 were ligated into the Xba I-Kpn I vector fragment from pREP7b.AP to generate the plasmid pMCS.AP. The 720 bp Xho I-Hind III fragment encoding the HIV-LTR promoter from the plasmid pU3R-III-CAT (Sodroski et al., Science 227:171-173, 1985) was ligated into the Xho I-Hind III vector fragment of PMCS.AP to generate the plasmid pHIV.AP. The CMV promoter was derived from the 600 bp Spe I-Asp718 I fragment from pCEP4 (Invitrogen). The 360 bp SV40 early promoter fragments were produced from pSV2tat72 (Frankel et al., Cell 55:1189-1193,1988) by PCR using the primers (5'-[…]-3') (SEQ ID NO. 5) and (5'-[…]-3') (SEQ ID NO. 6). The 480 bp phosphoglycerate kinase (PGK) promoter fragment was amplified from human placental genomic DNA (Promega, Madison, Wis.) based on published sequence (Pfeifer et al., Science 246:810-813, 1990) using the primers (5'-[…]-3') (SEQ ID NO. 7) and (5'-[…]-3') (SEQ ID NO. 8). The above fragments were ligated into the Xba I-Asp718 I vector fragment of pHIV.AP to generate pHIV2.AP, pHIV3.AP, pCMV.AP, pSVE.AP and PPGK.AP respectively. The tat-expression plasmid directed by HIV-LTR promoter, pHIV.tat, was generated by inserting the 400 bp EcoRV-HindIII fragment from pHIV.AP into the PvuII-HindIII vector fragment from pSV2tat72 (Frankel et al., Cell 55:1189-1193, 1988).
Transient transfections with various expression plasmids were performed on a human kidney embryonic cell line 293-EBNA (Invitrogen) using the cationic lipid DOTAP (Boehringer Mannheim). The cell culture media were changed 24 hr after transfection into a serum-free medium AIM V (Life Technologies) before addition of compounds or TNF-α (PeproTech) at the appropriate concentrations. AP activity measured by a colorimetric assay (Berger et al., Gene 66:1-10, 1988) was performed 19-24 hr later.

[4] = test system: CMV promoter in 293-EBNA cells; experiment: AP reporter gene expression from CMV promoter, 293-EBNA cells stably transfected with pCMV.AP; assay type: cell-based, human cytomegalovirus; human cells
Method: An assay for measuring the anti-viral activity of the compounds involves testing the abilities of the compounds to inhibit gene expression directed by specific viral promoters in cell lines. Specifically, a plasmid construct, pCMV.AP, using the human cytomegalovirus (CMV) enhancer and promoter to direct the expression of the secreted human placental alkaline phosphatase reporter gene were transformed into a tumor cell line (e.g., 293-EBNA cells). The cultured cells were treated with various concentrations of the compounds. The expression of the alkaline phosphatase (AP) reporter gene in the individual cultures can then be measured by following the change in absorbance at A405 of the cell conditioned media in the presence of a suitable substrate (e.g., ortho-nitrophenol phosphate) (Berger et al., Gene 66:1,1988).
The construction of expression vectors for secreted placental alkaline phosphatase (sPAP) was performed by obtaining a mammalian episomal expression vector pBL3, derived from the plasmids pMEP4 and pCEP4 (Invitrogen Corp). Specifically, a 600 bp Spe I--Kpn I fragment spanning the CMV promoter from pCEP4 and a 9500 bp Xba I--Kpn I vector fragment from pMEP4 were isolated and ligated together to form pBL3. Full length sPAP cDNA was amplified by PCR using the plasmid pGEM4Z/SEAP (ATCC) as template with primers 5'-[…]-3' (SEQ ID NO. 1) and 5'-[…]-3' (SEQ ID NO. 2). The PCR product was then digested with Xba I and Sal I and inserted between the Nhe I site and the Xho I site within the multiple cloning region of pBL3. The resulting plasmid was designated as PCMV.AP.

AP mRNA in 293tat cells = experiment: AP mRNA level in 293tat cells, Northern blot; assay type: cell-based, human; details: with TNF-α or IL-1β
Method: (§1) Nuclear extracts (A) from 293tat cells were tested by EMSA for activation of NFκB. A radiolabeled 40-mer covering the NFκB sequences in the HIV promoter was used as a probe. Cells were incubated with CT2576 at 12 μM, human TNF-α at 40 ng/ml or IL-1β at 1 ng/ml, or pre-incubated for 30 min. with CT2576 and then stimulated with TNF-α or IL-1β for 18 hr prior to making extracts. RNA was extracted from 293tat cells (B) after treatment with CT2576 without or with TNF-α or IL-1β for 18 hr. Northern blots analysis were performed using probes derived from AP cDNA and G3PDH cDNA as a control for normalization of mRNA level. AP activity was determined in cell supernatants from the various samples.
(§2) NFκB binding activity in nuclear extracts (Dignam et al., Nucleic Acids Res. 11:1475-1489, 1983) of cells was measured by electrophoretic mobility-shift assay (EMSA) (Carthew et al., Cell 43:439-448, 1985) using 5'-labeled double-stranded synthetic DNA with two NF-κB motifs. Northern blot analysis was performed with total RNA run on 1% agarose/formaldehyde gel and probed with ^32 P-labeled cDNA of AP and glyceraldehyde-3-phosphate dehydrogenase (G3PDH).

NFκB = NFκB activation in 293tat cells, electrophoretic mobility shift assay; assay type: cell-based, human; details: CT2576 12 μM, TNF-α 40 ng/ml or IL-1β 1 ng/ml
Method: as §1, §2

Row | Compound | cytotoxicity in U1 cells at 25 μM (U1 cells; 25 μM, FIG. 12 bottom panel, TNFα) | cytotoxicity in U1 cells (U1 cells; FIG. 12 top panel, constitutive) | effect on cell viability / cytotoxicity (293-EBNA cells [1]) | cytotoxic effect on 293-EBNA cells (Alamar Blue) (293-EBNA cells [2]) | inhibition of AP expression (HIV-LTR promoter) [3] | IC50 ([4]; Homo sapiens, 293-EBNA, FIG. 8, read-out: concentration inhibiting AP activity by 50% (CMV assay)) [µM] | inhibition of AP expression (CMV promoter) ([4]; in words) | AP transcript / mRNA steady-state level (AP mRNA in 293tat cells) | activation of NFκB (NFκB)
1 | CCCCCCCCNCC(O)CCCCCCCCCn1c(=O)ccn(C)c1=O (stereo not drawn) [CT1827, 3-(11-octylamino-10-hydroxyundecyl)-1-methyluracil] | some cytotoxicity | some cytotoxicity | minimal cytotoxic effects | no significant cytotoxic effect | inhibit HIV promoter driven expression | 2 to 6 | inhibit CMV promoter driven expression |  | 
2 | IL-1β: cytokine used as stimulant |  |  |  |  |  |  |  | induction of AP transcripts | NFκB was activated
